# Structures can show the parent of a compound that is named as a salt.
# Experiment: in vitro
# Conditions: rat, gh3-tre-luc cells, AC50 (uM) modified / 1000
row,SMILES,CC50 at 24 h
1,C=CCCCCCCCCC(=O)OCC [Ethyl undec-10-enoate],> 90 µM
2,CC(=O)O[C@H]1CC[C@@]2(C)C(=CC[C@@H]3[C@@H]2CC[C@]2(C)C(c4cccnc4)=CC[C@@H]32)C1 [Abiraterone acetate],> 50 µM
3,CCc1oc2ccccc2c1C(=O)c1cc(Br)c(O)c(Br)c1 [Benzbromarone],39.4 µM
4,CC(=O)NS(=O)(=O)c1ccc(N)cc1 [Sulfacetamide],> 90 µM
5,COc1ccc(Cl)cc1C(=O)NCCc1ccc(S(=O)(=O)NC(=O)NC2CCCCC2)cc1 [Glybenclamide],> 90 µM
6,"O=C(c1ccc(O)cc1O)c1ccc(O)cc1O [2,2',4,4'-Tetrahydroxybenzophenone]",> 90 µM
7,"C=CC(=O)OCC1CC2CC1C1CCC(COC(=O)C=C)C21 (stereo not drawn) [Octahydro-1H-4,7-methanoindene-1,5-diyldimethanediyl bisprop-2-enoate]",75.1 µM
8,CCCCc1c(C)nc(NCC)[nH]c1=O [Ethirimol],> 90 µM
9,ClC1=C(Cl)C1(Cl)Cl [Tetrachlorocyclopropene],> 90 µM
10,c1cnc(N2CCN(Cc3ccc4c(c3)OCO4)CC2)nc1 [Piribedil],> 50 µM
11,CSC1=N[C@@](C)(c2ccccc2)C(=O)N1Nc1ccccc1 [Fenamidone],> 90 µM
12,CC(=O)N[C@@H](CCC(N)=O)C(=O)O [Nalpha-Acetyl-L-glutamine],> 50 µM
13,CC(C)c1nnc2ccc(-c3ocnc3-c3cc(F)ccc3F)cn12 [CP-863187],> 90 µM
14,CC(C)(C)c1cc(CO)cc(C(C)(C)C)c1O,82.2 µM
15,COc1cc2c(cc1OC)[C@@H](c1ccccc1)CN(C)CC2 [Trepipam maleate],> 50 µM
16,CC(C)C=O [2-Methylpropanal],> 90 µM
17,"O=C(CS)OCCOC(=O)CS [Ethane-1,2-diyl bis(sulfanylacetate)]",> 90 µM
18,CO[C@@H]1[C@@H](O[C@@H]2O[C@H](C)[C@@H](O[C@H]3C[C@@](C)(O)[C@@H](O)[C@H](C)O3)[C@H](N(C)C)[C@H]2O)[C@@H](CC=O)C[C@@H](C)[C@@H](O[C@H]2CC[C@H](N(C)C)[C@@H](C)O2)/C=C/C=C/C[C@@H](C)OC(=O)C[C@H]1OC(C)=O [Spiramycin II],32.1 µM
19,CC(=O)Nc1ccc(/C=N/NC(N)=S)cc1 [Amithiozone],> 50 µM
20,CCCCOC(=O)C(C)O (stereo not drawn) [Butyl lactate],> 90 µM
21,"CC(C)[C@@H]1CC[C@@H](C)CC1=O [(2S,5R)-5-Methyl-2-(propan-2-yl)cyclohexanone]",> 90 µM
22,C=C1/C(=C\C=C2/CCC[C@]3(C)[C@@H]([C@H](C)OCCC(C)(C)O)CC[C@@H]23)C[C@@H](O)C[C@@H]1O [Maxacalcitol],> 50 µM
23,c1ccc([C@H]2CN3CCSC3=N2)cc1 [Levamisole hydrochloride],> 50 µM

row,SMILES,CC50 at 24 h
1,CCOC(=O)/C=C\C(=O)OCC [Diethyl maleate],> 90 µM
2,COCC(=O)O[C@]1(CCN(C)CCCc2nc3ccccc3[nH]2)CCc2cc(F)ccc2[C@@H]1C(C)C [Mibefradil dihydrochloride],1.9 µM
3,"Cc1ccc2c(C)cccc2c1 [1,6-Dimethylnaphthalene]",> 90 µM
4,CCN(C(=O)c1cc(C)cc(OC[C@H](C)Nc2ccncc2)c1)C(C)C [GW473178E methyl benzene sulphonic acid],> 60 µM
5,Cc1cnc(C2=NC(=O)C(C)(C(C)C)N2)c(C(=O)O)c1 (stereo not drawn) [Imazapic],> 90 µM
6,CN[C@H]1CC[C@@H](c2ccc(Cl)c(Cl)c2)c2ccc(S(N)(=O)=O)cc21 [UK-373911],4.55 µM
7,O=[N+]([O-])c1ccc2ncccc2c1 [6-Nitroquinoline],> 90 µM
8,Cc1ccc(C2(O)CCN(CCCC(=O)c3ccc(F)cc3)CC2)cc1 [Moperone],30.1 µM
9,N#CC1(N)CCCCC1 [1-Aminocyclohexanecarbonitrile],> 90 µM
10,COC(=O)c1ccccc1C(=O)OC [Dimethyl phthalate],> 50 µM
11,C=CC(=O)OCCCl [2-Chloroethyl acrylate],> 90 µM
12,CC(C)(C)c1nnc(NS(=O)(=O)c2ccccc2)s1 [Glybuzole],> 50 µM
13,CCC1=C[C@@H]2CN(C1)Cc1c([nH]c3ccccc13)[C@@](C(=O)OC)(c1cc3c(cc1OC)N(C)[C@H]1[C@@](O)(C(=O)OC)[C@H](OC(C)=O)[C@]4(CC)C=CCN5CC[C@]31[C@@H]54)C2 [Vinorelbine tartrate],6.67 µM
14,"Oc1nc2ccc(Cl)cc2o1 [6-Chloro-2,3-dihydrobenzoxazol-2-one]",> 90 µM
15,Clc1ccc(CCC(Cn2ccnc2)Sc2c(Cl)cccc2Cl)cc1 (stereo not drawn) [Butoconazole nitrate],> 20 µM
16,CC1=C(C(=O)Nc2ccccc2)S(=O)(=O)CCO1 [Oxycarboxin],40.7 µM
17,C=C(C)[C@@H]1CC=C(C=O)CC1 [l-Perillaldehyde],> 90 µM
18,CC1(CO)CN(c2ccccc2)NC1=O (stereo not drawn) [4-(Hydroxymethyl)-4-methyl-1-phenylpyrazolidin-3-one],> 90 µM
19,CN[C@@H]1[C@@H](O)[C@@H](O[C@@H]2[C@@H](O)[C@H](O[C@H]3OC(CN)=CC[C@H]3N)[C@@H](N)C[C@H]2N)OC[C@]1(C)O [Sisomicin sulfate],> 20 µM
20,CCNc1nc(NC(C)C(C)C)nc(SC)n1 (stereo not drawn) [Dimethametryn],> 90 µM
21,O=C(O)C(Cc1cc(I)c(O)c(I)c1)c1ccccc1 (stereo not drawn) [Iodoalphionic acid],> 50 µM
22,CCCC(=O)O[C@]1(C(=O)CCl)[C@@H](C)C[C@H]2[C@@H]3CCC4=CC(=O)C=C[C@]4(C)[C@@]3(F)C(=O)C[C@@]21C [Clobetasone butyrate],> 50 µM
23,C=C(C)c1ccccc1 [alpha-Methylstyrene],> 90 µM

row,SMILES,CC50 at 24 h
1,Cc1ccc([N+](=O)[O-])c(N)c1 [5-Methyl-2-nitroaniline],> 90 µM
2,O=C(Nc1ccccc1)Nc1ccnc(Cl)c1 [Forchlorfenuron],64.7 µM
3,C[C@@H]1C[C@H]2[C@@H]3C[C@H](F)C4=CC(=O)C(Cl)=C[C@]4(C)[C@@]3(F)[C@@H](O)C[C@]2(C)[C@@]1(O)C(=O)CO [Halometasone hydrate],> 50 µM
4,N#CSCSc1nc2ccccc2s1 [2-(Thiocyanomethylthio)benzothiazole],3.06 µM
5,OCc1ccccc1O [Salicyl alcohol],> 50 µM
6,"Nc1ccc(S(=O)(=O)O)c(N)c1 [2,4-Diaminobenzenesulfonic acid]",> 90 µM
7,"COC(C)OC [1,1-Dimethoxyethane]",> 90 µM
8,Oc1ncc(N(CCCl)CCCl)c(O)n1 [Uracil mustard],> 50 µM
9,CCN1CCN(C(=O)N[C@@H](C(=O)N[C@@H]2C(=O)N3[C@@H]2SC(C)(C)[C@@H]3C(=O)O)c2ccccc2)C(=O)C1=O [Piperacillin sodium salt],> 50 µM
10,N[C@@H]1C[C@H]1c1ccccc1 [Tranylcypromine hydrochloride],> 50 µM
11,O=C1NC(=O)[C@H]2[C@@H]1[C@@H]1C=C[C@H]2C1 [Noreximide],> 50 µM
12,C#CCC1=C(C)C(OC(=O)C2C(C=C(C)C)C2(C)C)CC1=O (stereo not drawn) [Prallethrin],66.6 µM
13,O=[N+]([O-])/C=C/c1ccccc1 [(E)-beta-Nitrostyrene],13.7 µM
14,CC1(CN2CCC(n3c(=O)[nH]c4ccccc43)CC2)OCc2ccccc2-n2cccc21 (stereo not drawn) [Zaldaride],32.7 µM
15,"O=C(OCC(COC(=O)c1ccccc1)(COC(=O)c1ccccc1)COC(=O)c1ccccc1)c1ccccc1 [2,2-Bis[(benzoyloxy)methyl]dibenzoate propanediol]",> 90 µM
16,Oc1ncnc2[nH]ncc12 [Allopurinol],> 90 µM
17,COc1cc(C)cc(O)c1 [3-Methoxy-5-methylphenol],> 90 µM
18,COc1ccccc1N1CCN(CCCC(=O)c2ccc(F)cc2)CC1 [Fluanisone],> 50 µM
19,[H]/N=C(/N)N[C@H]1[C@H](O)[C@@H](O)[C@H](O[C@@H]2O[C@@H](C)[C@](O)(C=O)[C@H]2O[C@@H]2O[C@@H](CO)[C@H](O)[C@@H](O)[C@@H]2NC)[C@@H](N/C(N)=N\[H])[C@@H]1O [Streptomycin sulfate (2:3)],> 50 µM
20,Cn1c(=O)c2c(ncn2CCOC(=O)C(C)(C)Oc2ccc(Cl)cc2)n(C)c1=O [Etofylline clofibrate],> 50 µM
21,Nc1ccc(C(=O)Oc2ccccc2)c(O)c1 [Phenyl 4-aminosalicylate],> 50 µM

# Same assay, conditions: rat, gh3-tre-luc cells, AC50 (uM) modified / 1000, Tox21_110001=Tox21_112258; viability, 1 nM T3 present, 24 h
row,SMILES,CC50 at 24 h
1,O=C(C[S+]([O-])C(c1ccccc1)c1ccccc1)NO (stereo not drawn) [Adrafinil],> 50 µM

# Same assay, conditions: rat, gh3-tre-luc cells, AC50 (uM) modified / 1000, Tox21_110001=Tox21_112593; viability, 1 nM T3 present, 24 h
row,SMILES,CC50 at 24 h
1,CCOC(=O)C1(c2ccccc2)CCN(CCC(C#N)(c2ccccc2)c2ccccc2)CC1 [Diphenoxylate hydrochloride],> 50 µM

# Same assay, conditions: rat, gh3-tre-luc cells, AC50 (uM) modified / 1000, Tox21_110001=Tox21_112825; viability, 1 nM T3 present, 24 h
row,SMILES,CC50 at 24 h
1,CCOC(=O)C1(c2ccccc2)CCN(CCC(C#N)(c2ccccc2)c2ccccc2)CC1 [Diphenoxylate hydrochloride],19.7 µM

# Same assay, conditions: rat, gh3-tre-luc cells, AC50 (uM) modified / 1000, Tox21_110001=Tox21_112833; viability, 1 nM T3 present, 24 h
row,SMILES,CC50 at 24 h
1,CC(=O)OC1(c2ccccc2)CCN(CCc2ccccc2)CC1 [1-(2-Phenylethyl)-4-phenyl-4-acetoxypiperidine],84.5 µM

# Same assay, conditions: rat, gh3-tre-luc cells, AC50 (uM) modified / 1000, Tox21_110001=Tox21_112865; viability, 1 nM T3 present, 24 h
row,SMILES,CC50 at 24 h
1,CCN[C@H](C)Cc1cccc(C(F)(F)F)c1 [(-)-Fenfluramine hydrochloride],52.7 µM

# Same assay, conditions: rat, gh3-tre-luc cells, AC50 (uM) modified / 1000, Tox21_110001=Tox21_200234; viability, 1 nM T3 present, 24 h
row,SMILES,CC50 at 24 h
1,O=C=NC1CCCCC1 [Isocyanatocyclohexane],> 90 µM

# Same assay, conditions: rat, gh3-tre-luc cells, AC50 (uM) modified / 1000, Tox21_110001=Tox21_201315; viability, 1 nM T3 present, 24 h
row,SMILES,CC50 at 24 h
1,CCOC(=O)C1OC1(C)c1ccccc1 (stereo not drawn) [Ethyl methylphenylglycidate],> 90 µM

# Same assay, conditions: rat, gh3-tre-luc cells, AC50 (uM) modified / 1000, Tox21_110001=Tox21_300997; viability, 1 nM T3 present, 24 h
row,SMILES,CC50 at 24 h
1,C/C(=N\NC(=O)Nc1cc(F)cc(F)c1)c1ncccc1C(=O)O [Diflufenzopyr-sodium],> 90 µM

# Source: paper PMC6792352, “Limited Chemical Structural Diversity Found to Modulate Thyroid Hormone Receptor in the Tox21 Chemical Library” (Environmental Health Perspectives, 2019)
